Experimental data reported in patent publication US20180369230A1, “TARGETED SELECTION OF PATIENTS FOR TREATMENT WITH SPECIFIC CORTISTATIN DERIVATIVES” (President and Fellows of Harvard College, priority 2015, published 2018).

Legend:
[1] = tested on: MOLM-14 cells; assay: Gene expression, gene set enrichment analysis (GSEA); assay type: cell-based, human; conditions: MOLM-14, 3 h 25 nM
Experimental: (§1) Leukemia cells were plated (12-well) in triplicate at 500,000-800,000 cells per ml and incubated in the presence of vehicle (0.1% DMSO) or CA (25 nM 3 h for K562, MOLM-14 and MV4;11; 10 nM 24 h for MOLM-14; 25 nM 4 h for SET-2, n=3 for each cell line). Cells were then washed twice with cold PBS, and snap frozen. RNA was isolated (RNeasy Plus Microkit, Qiagen or TRIzol, Life Technologies), processed, and, for K562, MOLM-14 and MV4;11, hybridized to the Human U133 Plus 2.0 microarray (Affymetrix). Microarrays were processed with Bioconductor packages affyQCReport for quality control and affy for background correction, summarization, and normalization using rma. Probe sets present in at least 1 sample (based on affy mas5call) and for which the interquartile range was >log2(1.2) were retained for further analysis. The limma Bioconductor package was used for differential expression analysis of CA-treated versus DMSO control samples (Benjamini-Hochberg adjusted P<0.05). SET-2 and HCT 116 gene expression was measured by RNA-seq. SET-2 RNA-seq libraries were prepared and processed using the Ion Torrent workflow. Reads were aligned in two passes, first with rnaStar (v.2.3.0e) then with BWA (v.0.7.5a) for remaining unmapped reads, both using default parameters. Mapped reads were merged and counted using HTSeq (v.0.5.3p3) with -s yes -m intersection-strict. The Bioconductor package DESeq was used for DE analysis (FDR<0.05 and twofold change) and normalization. HCT116 cells were grown to approximately 80% confluence and were treated with either 100 nM CA or DMSO for 3 h (n=3). Cells were then washed twice with cold PBS and scraped into TRIzol reagent (Life Technologies). After collecting the RNA, it was further purified using an RNeasy mini kit (Qiagen) with an on-column DNase I digestion. Libraries for Illumina sequencing were generated via the Illumina TruSEQ stranded mRNA prep kit. Samples were run in a single lane on an Illumina HiSEQ 2000 sequencer with a single read flow cell using 1×50-bp reads and a 6-cycle index read. Reads were mapped to the hg19 reference genome using Tophat2 v.2.0.6 with custom settings including the setting of -library-type fr- firstrand to appropriately account for the stranded nature of the protocol. HTSeq v.0.6.1 was used to obtain read counts over annotated genes and differentially expressed genes were called by DESeq v.1.10.1 with a padj value of less than 0.01. Counts were normalized for GSEA using the limma voom function. Expression data for the I-BET151 comparison were downloaded from ArrayExpress (https://www.ebi.ac.uk/arrayexpress, accession E-MTAB-774) and processed files used as is. Gene lists were submitted to the DAVID web server (http://david.abcc.ncifcrf.gov) for functional annotation. GSEA version 2.09 was carried out using signal-to-noise on natural values as the metric. Signatures included curated gene sets (C2, v.3) downloaded from the Broad's MSigDB as well as signatures curated from in-house and published data sets.
(§2) The curated gene sets were analyzed together with over 4,000 signatures including the Broad Molecular Signatures database (C2).

[2] = tested on: SET-2 cells; assay: as above; assay type: cell-based, human; conditions: SET-2, 4 h 25 nM
Experimental: as §1, §2

Cortistatin A
NES ([1]; signature: Downregulated by RUNX1-RUNX1T1 in CD34+ cord blook cells): 2.50
NES ([1]; signature: Downregulated by RUNX1 knowckdown in Jurkat cells): 2.00
NES ([1]; signature: Downregulated by RUNX1 knowckdown in Kasumi-1 cells): 2.21
NES ([1]; signature: Upregulated by C/EBPα in Burkitt lymphoma cells): 2.56
NES ([1]; signature: Upregulated by C/EBPα in K562 cells): 2.22
NES ([1]; signature: Upregulated by C/EBPα in KCL22 cells): 2.22
NES ([1]; signature: Upregulated by RUNX1-RUNX1T1 knockdown in Kasumi-1 cells): 2.78
NES ([2]; signature: GATA1/GATA2/RUNX1/FLI1/SCL Binding Sites in Mks): 2.03
NES ([2]; signature: GATA1/SCL Binding sites in Mks): 2.27
